# Source: patent publication US20170209443A1, “ANTI-INFLAMMATORY EFFECT OF ORALLY ACTIVE FYN KINASE INHIBITOR SARA-CATINIB (AZD 0530) AGAINST PARKINSON'S DISEASE AND OTHER RELATED NEURODEGENARATIVE DISEASES” (Iowa State University Research Foundation, Inc., priority 2016, published 2017)
# Entries after “also recorded” stand apart in the source; their conditions may differ. Residues, ends and D or L forms follow the SMILES beside them. *: point of attachment. Cbz = O=C(OCc1ccccc1)*; CH2F = FC*
# How the values were obtained:
# microglial cell line [1] = test: cell viability assay in microglial cell line; type: cell-based; settings: FIG. 26A
# Procedure: (§1) In this study microglial cell line were pretreated with 1-30 μM Saracatinib, a Fyn kinase inhibitor followed by aggregated α-synuclein (1 μM) for 24 hours in a 96 well plate.
# microglial cell line [2] = test: Luminex cytokine assay, aggregated α-synuclein induced pro-inflammatory cytokines; type: cell-based; settings: 1-30 μM pretreatment, aggregated α-synuclein (1 μM) 24 hours; FIG. 26C
# Procedure: Primary microglia obtained from wild-type, PKCδ^−/− and Fyn^−/− mice were seeded in poly-D-lysine-coated 96-well plates at 1×10^5 cells/well. The cells were treated for 24 h with 100-200 ng/mL LPS or 10 ng/mL TNFα. After treatment, 50 μL of supernatant from each well was collected and frozen at −80° C. The levels of cytokines and chemokines in the supernatants were determined using the Luminex bead-based immunoassay platform (Vignali 2000) and pre-validated multiplex kits (Milliplex mouse cytokine panel Millipore) according to the manufacturer's instructions.
# as §1
# microglial cell line [3] = test: Griess assay, aggregated α-synuclein induced nitrite production; type: cell-based; settings: FIG. 26B
# Procedure: Nitric oxide production by primary microglia was measured indirectly by quantification of nitrite in the supernatant using the Griess reagent (Sigma Aldrich). Microglia were plated in poly-D-lysine-coated 96-well plates at 1×10^5 cells/well. Cells were treated with 100 ng/mL of LPS for 24 h and after 100 μL of supernatant was collected from each well, an equal volume of the Griess reagent was added. The samples were incubated on a plate shaker at room temperature for 15 min until a stable color was obtained. The absorbance at 540 nm was measured using a Synergy 2 multi-mode microplate reader (BioTek Instruments) and the nitrite concentration was determined from a sodium nitrite standard curve.
# as §1
# MPTP-treated mice = test: microglia activation (IBA-1) in substantia nigra, acute MPTP mouse model; type: in vivo, C57 black mice; settings: FIG. 27; for expression of IBA-1 in SN tissue (Western blot): oral 5 mg/kg once on days 1 and 2, MPTP 18 mg/kg x 4 i.p., 24 hrs after last MPTP
# Procedure: Thus, we evaluated whether the Sarcanatib attenuates microglial activation in the substantia nigra. C57 black mice were orally administered saracatinib (5 mg/kg, once) on days 1 and 2. On day 2, after sarcanatib administration, mice were subject to acute MPTP regimen. Mice were administered 18 mg/kg MPTP (4 i.p. injections at 2 hour intervals) and control animals received saline. Mice were sacrificed 24 hrs post last MPTP injection. Brain harvested and nigral tissue lysates were subject to Western blot analysis.
# [4] = tested on: immortalized WT microglial cells; test: aggregated αSyn-induced IL-1β secretion from unprimed immortalized microglial cells; type: cell-based; settings: pre-treatment before aggregated αSyn, FIG. 19B
# Text: The current model of the NLRP3 inflammasome postulates a two-step mechanism. A TLR or TNFR1 agonist, acting as the initial signal, induces the expression of pro-[…] and NLRP3 proteins. Subsequently, a second signal causes lysosomal rupture, mitochondrial ROS generation and/or K^+ efflux that acts as a danger signal resulting in the assembly and activation of the inflammasome complex and the processing and secretion of IL-1β into the cell supernatant. Since we observed that αSyn can signal the inflammasome and can also amplify LPS-mediated activation of NLRP3 and pro-IL-1β at the mRNA and protein level, we wondered if it could activate the NLRP3 inflammasome independent of an LPS-mediated priming step. Unprimed and immortalized WT and Capsase-1^−/− microglial cells were treated with aggregated αSyn for 4 h. As assessed via immunoblot, aggregated αSyn induced pro-IL-1β and NLRP3 to equivalent levels in both cell types (FIG. 19A). It also brought about the secretion of IL-1β in WT, and to a strikingly lower extent in the Caspase-1 deficient microglial cells. […] We next utilized primary BMDMs from WT, NLRP3^−/−, Caspase-1^−/− and Caspase-11^−/− mice to test the ability of αSyn to activate the NLRP3 inflammasome in them. As expected, we saw no genotypic difference in the ability of macrophages to induce pro-IL-1β and import αSyn (FIG. 19C). […]
# [5] = tested on: LPS-primed primary murine microglia; test: αSyn-induced IL-1β and TNFα production in LPS-primed primary microglia; type: cell-based; settings: pre-treatment post priming, before αSyn; FIG. 14A
# Procedure: Misfolded proteins can activate the NLRP3 inflammasomes in microglia (Hafner-Bratkovic et al., 2012; Halle et al., 2008). After obtaining and purifying human αSyn (FIG. 15), we determined that endotoxin contamination was minimal, and that an equivalent concentration of LPS could not activate pro-inflammatory signaling in microglia (data not shown). Aggregation of αSyn was performed as previously described (Zhang et al., 2005). LPS-primed primary murine microglia were treated with α-synuclein for 24 h, with or without the pre-treatment of the pan-Caspase inhibitor ZVAD-FMK or the Caspase-1 specific inhibitor ZYVAD-FMK. […] Next, we treated LPS-primed bone marrow-derived macrophages (BMDMs) from WT, NLRP3^−/−, ASC^−/−, Caspase-1^−/− and Caspase-11^−/− mice with aggregated human α-synuclein for 24 h (FIG. 14B). […] By immunoblotting the levels of pro-IL-1β produced upon LPS treatment (FIG. 14C, 14D), we confirmed that none of these proteins played a role in the priming of the NLRP3 inflammasome. Next, we assessed the inflammasome activating ability of aggregated human αSyn in primary murine microglia by staining for ASC in LPS and LPS+αSyn treated microglia. […] We also utilized the ASC-CFP reporter cell line, which overexpresses ASC tagged with cyan fluorescent protein (CFP). NLRP3 inflammasome activation causes ASC to coalesce into a single speck within each cell. We counted the number of ASC-positive specks to measure inflammasome activation. ASC-CFP cells were primed with LPS and treated with aggregated αSyn for 2 h. Endogenous CFP fluorescence was assessed. In the αSyn treated group, specks of ASC were observed, indicating inflammasome activation (FIG. 14G). […] In summary, aggregated αSyn acts as an efficient danger signal to activate the NLRP3 inflammasome. Data from the A53T model and from PD patient lysates provide in vivo relevance as well. We also observed increased Fyn expression within the microglia in PD tissues, when compared to age-matched control tissues (FIG. 16).
SMILES,"cytotoxic cell death (microglial cell line [1]; 1-30 μM pretreatment, then aggregated α-synuclein (1 μM) for 24 hours)",cell death (microglial cell line [1]; low dose),IL-1β production induced by aggregated α-synuclein (microglial cell line [2]),IL-12 production induced by aggregated α-synuclein (microglial cell line [2]),TNF-α production induced by aggregated α-synuclein (microglial cell line [2]),nitrite production induced by aggregated α-synuclein (microglial cell line [3]; 10 μM dose),"aggregated α-synuclein induced nitrite production (microglial cell line [3]; 1-30 μM pretreatment, aggregated α-synuclein (1 μM) 24 hours)",activation of microglia in the substantia nigra (MPTP-treated mice; MPTP-treated mice),expression of IBA-1 in SN tissue (Western blot) (MPTP-treated mice),expression of IBA-1 in SN tissue (Western blot) (MPTP-treated mice; listed as saracatinib),αSyn-induced secretion of IL-1β [4],secretion/production of TNFα [5],αSyn-induced IL-1β cleavage and secretion [5]
CN1CCN(CCOc2cc(OC3CCOCC3)c3c(Nc4c(Cl)ccc5c4OCO5)ncnc3c2)CC1 [Saracatinib],did not induce cytotoxic cell death,not associated with cell death,significantly attenuated; also recorded: attenuates the secretion,significantly attenuated; also recorded: attenuates the secretion,significantly attenuated; also recorded: attenuates the secretion,attenuates the nitrite production,significantly blocked aggregated α-synuclein induced nitrite production in a dose-dependent manner,blocked activation of microglia,not in Saracatinib and MPTP-treated animals,attenuated the expression of IBA-1,inhibited by pre-treatment with the Fyn inhibitor Saracatinib in a dose-dependent manner; also recorded: inhibited with pretreatment of the Fyn inhibitor Saracatinib in a dose dependent manner,–,–
COC(=O)C[C@H](NC(=O)[C@H](C)NC(=O)[C@@H](NC(=O)[C@H](Cc1ccc(O)cc1)NC(=O)OCc1ccccc1)C(C)C)C(=O)CF [ZYVAD-FMK],–,–,–,–,–,–,–,–,–,–,–,only marginally reduced,reduced in the group pre-treated with the Caspase inhibitors
COC(=O)C[C@H](NC(=O)[C@H](C)NC(=O)[C@@H](NC(=O)OCc1ccccc1)C(C)C)C(=O)CF [ZVAD-FMK] (Cbz-Val-Ala-Asp(OMe)-CH2F),–,–,–,–,–,–,–,–,–,–,–,only marginally reduced,reduced in the group pre-treated with the Caspase inhibitors
